Measurements published in DBAASP.
In brackets after ≈: the same amount, converted by molar mass. Several values for one entry are separate records, joined by “and”; a condition that tells them apart may be missing. Equal values may be shown once. Values belong to the compound of their own block, whether it stands above or below them.

Columns and labels:
Assay in all cases: ≥ marks a high value that may be exact or a test limit, other limits are often not marked, values filed in µg/mL are converted to µM
[1] = tested on: Pseudomonas putida
[2] = tested on: Enterobacter cloacae AB2010162
[3] = tested on: Staphylococcus aureus AB94004
[4] = tested on: Staphylococcus aureus 16472
[5] = tested on: Candida tropicalis AY91009
[6] = tested on: Bacillus magaterium AB90008
[7] = tested on: Micrococcus luteus AB2010179
[8] = tested on: Escherichia coli DH5alpha
[9] = tested on: Klebsiella oxytoca AB2010143
[10] = tested on: Enterococcus sp. S13
[11] = tested on: Salmonella enterica AB2010185
[12] = tested on: Enterococcus faecium
[13] = tested on: Klebsiella pneumoniae
[14] = tested on: Enterococcus faecalis LS-101
[15] = tested on: Staphylococcus aureus FDA 209P
[16] = tested on: Shigella sonnei EW-33
[17] = tested on: Shigella flexneri EW-10
[18] = tested on: Bifidobacterium adolescentis
[19] = tested on: Enterococcus faecalis
[20] = tested on: Staphylococcus aureus
[21] = tested on: Citrobacter koseri
[22] = tested on: Botrytis cinerea
[23] = tested on: Salmonella enterica
[24] = tested on: Staphylococcus aureus 1840
[25] = tested on: Klebsiella pneumoniae CCRC 10694
[26] = tested on: Acinetobacter baumannii
[27] = tested on: Staphylococcus xylosus
[28] = tested on: Vibrio parahaemolyticus CCRC 10806
[29] = tested on: Enterococcus faecium EFMY-28
[30] = tested on: Staphylococcus epidermidis ATCC 12228
[31] = tested on: Staphylococcus aureus CCRC 12652
[32] = tested on: Escherichia coli BL21
[33] = tested on: Escherichia coli NIHJ JC-2
[34] = tested on: Candida albicans ATCC 10231
[35] = tested on: Escherichia coli ATCC 11775
[36] = tested on: Lactobacillus delbrueckii subsp. bulgaricus
[37] = tested on: Salmonella typhimurium CCRC 12947
[38] = tested on: Staphylococcus aureus CCRC 15211
[39] = tested on: Bacillus subtilis PCI 219
[40] = tested on: Staphylococcus aureus ATCC 12600
[41] = tested on: Escherichia coli JM109
[42] = tested on: Bordetella bronchiseptica CUN 11844-99
[43] = tested on: Staphylococcus aureus ATCC 25923
[44] = tested on: Vibrio cholerae CUN 09
[45] = tested on: Pseudomonas aeruginosa ATCC 27853
[46] = tested on: Staphylococcus aureus ATCC 43300
[47] = tested on: Escherichia coli ATCC 25922
[48] = tested on: Stenotrophomonas maltophilia CUN 3998-00
[49] = tested on: Staphylococcus aureus CUN 3792-99
[50] = tested on: Escherichia coli ESBL
[51] = tested on: Pseudomonas aeruginosa CUN 4158-02
[52] = tested on: Acinetobacter baumannii ATCC 19606
[53] = tested on: Candida albicans ATCC 90028
[54] = tested on: Staphylococcus aureus NCTC 8325
[55] = tested on: Enterobacter cloacae NHTCC 53001
[56] = tested on: Klebsiella pneumoniae KK3 9904

MIC [1]: ≥ 87 µM
MIC [2]: ≥ 87 µM
MIC [3]: ≥ 48 µM
MIC [4]: 28 µM (≈ 39.3 µg/mL)
MIC [5]: 16 µM (≈ 22.5 µg/mL)
MIC [6]: ≥ 36 µM
MIC [7]: 18 µM (≈ 25.3 µg/mL)
MIC [8]: ≥ 48 µM
MIC [9]: ≥ 87 µM
MIC [10]: ≥ 36 µM
MIC [11]: ≥ 68 µM
Structure (SMILES): CC[C@H](C)[C@H](N)C(=O)N[C@@H](Cc1ccccc1)C(=O)NCC(=O)N[C@@H](C)C(=O)N[C@H](C(=O)N[C@@H](Cc1c[nH]c2ccccc12)C(=O)N[C@@H](CCCCN)C(=O)NCC(=O)N[C@H](C(=O)N[C@@H](CO)C(=O)N[C@@H](CO)C(=O)N[C@@H](CC(C)C)C(=O)N[C@@H](CC(C)C)C(=O)O)[C@@H](C)CC)[C@@H](C)CC [IFGAIWKGISSLL]

MIC [12]: ≥ 79.4 µM
MIC [13]: > 15.5 µM
MIC [14]: 1.94 µM (≈ 3.13 µg/mL)
MIC [15]: 7.75 µM (≈ 12.5 µg/mL)
MIC [16]: 3.87 µM (≈ 6.25 µg/mL)
MIC [17]: 3.87 µM (≈ 6.25 µg/mL)
MIC [18]: ≥ 79.4 µM
MIC [19]: 6.63 µM (≈ 10.7 µg/mL)
MIC [20]: 8.25 µM (≈ 13.3 µg/mL)
MIC [21]: 1.75 µM (≈ 2.83 µg/mL)
MIC [22]: 4.96 µM (≈ 8 µg/mL)
MIC [23]: 19.8 µM (≈ 32 µg/mL)
MIC [24]: 15.5 µM (≈ 25 µg/mL)
MIC [25]: ≥ 39.7 µM
MIC [26]: 1.05 µM and 1.24 µM
MIC [27]: 0.31 µM (≈ 0.5 µg/mL)
MIC [29]: 12.5 µM (≈ 20.2 µg/mL)
MIC [30]: 3.87 µM (≈ 6.25 µg/mL)
MIC [31]: 9.92 µM (≈ 16 µg/mL)
MIC [32]: 3.51 µM (≈ 5.65 µg/mL)
MIC [33]: 7.75 µM (≈ 12.5 µg/mL)
MIC [34]: 15.5 µM (≈ 25 µg/mL)
MIC [35]: 31 µM (≈ 50 µg/mL)
MIC [36]: ≥ 79.4 µM
MIC [37]: 19.8 µM (≈ 32 µg/mL)
MIC [38]: 14 µM (≈ 22.6 µg/mL)
MIC [39]: 1.94 µM (≈ 3.13 µg/mL)
MIC [40]: 3.1 µM (≈ 5 µg/mL)
MIC [41]: 0.62 µM (≈ 0.999 µg/mL)
Structure (SMILES): CC[C@H](C)[C@H](NC(=O)[C@H](CO)NC(=O)[C@H](CCCCN)NC(=O)[C@H](CC(C)C)NC(=O)[C@H](CCCCN)NC(=O)[C@@H](N)CC(C)C)C(=O)N[C@H](C(=O)N[C@@H](CO)C(=O)N[C@@H](Cc1c[nH]c2ccccc12)C(=O)N[C@@H](C)C(=O)N[C@@H](CCCCN)C(=O)N[C@@H](CCCCN)C(=O)N[C@H](C(=O)N[C@@H](CC(C)C)C(N)=O)C(C)C)C(C)C [LKLKSIVSWAKKVL]
MIC [28]: 7.01 µM (≈ 11.3 µg/mL)

MIC [42]: ≥ 48.5 µM
MIC [13]: 12.1 µM (≈ 32 µg/mL)
MIC [43]: 3.03 µM (≈ 8 µg/mL)
MIC [45]: 6.07 µM (≈ 16 µg/mL)
MIC [46]: 3.03 µM (≈ 8 µg/mL)
MIC [47]: 6.07 µM (≈ 16 µg/mL)
MIC [48]: 12.1 µM (≈ 32 µg/mL)
MIC [49]: 3.03 µM (≈ 8 µg/mL)
MIC [50]: 6.07 µM (≈ 16 µg/mL)
MIC [51]: 12.1 µM (≈ 32 µg/mL)
MIC [52]: 6.07 µM (≈ 16 µg/mL)
Structure (SMILES): N=C(N)NCCC[C@H](NC(=O)CNC(=O)[C@H](CCCCN)NC(=O)[C@H](Cc1ccccc1)NC(=O)[C@H](CCCCN)NC(=O)[C@H](Cc1c[nH]c2ccccc12)NC(=O)[C@H](CCCNC(=N)N)NC(=O)[C@H](Cc1ccccc1)NC(=O)[C@H](CCCCN)NC(=O)[C@H](CCCCN)NC(=O)[C@H](Cc1ccc(O)cc1)NC(=O)[C@H](CCCNC(=N)N)NC(=O)[C@H](CCCNC(=N)N)NC(=O)CN)C(=O)N[C@@H](Cc1c[nH]c2ccccc12)C(=O)N[C@@H](Cc1ccccc1)C(=O)N[C@@H](Cc1c[nH]c2ccccc12)C(=O)N[C@@H](Cc1ccccc1)C(=O)NCC(=O)O [GRRYKKFRWKFKGRWFWFG]
MIC [44]: 6.07 µM (≈ 16 µg/mL)

MIC [53]: ≥ 100 µM
MIC [54]: 25 µM (≈ 96 µg/mL)
MIC [45]: 3 µM (≈ 11.5 µg/mL)
MIC [47]: 3 µM (≈ 11.5 µg/mL)
MIC [55]: 3 µM (≈ 11.5 µg/mL)
MIC [56]: 6 µM (≈ 23 µg/mL)
Structure (SMILES): CC[C@H](C)[C@@H]1NC(=O)[C@H](CCCCN)NC(=O)[C@@H](NC(=O)[C@H](CCCCN)NC(=O)[C@H](C)NC(=O)[C@H](CCC(N)=O)NC(=O)[C@H](CC(=O)O)NC(=O)[C@H](CC(C)C)NC(=O)[C@H](CC(C)C)NC(=O)[C@H](CO)NC(=O)CNC(=O)CNC(=O)[C@@H](NC(=O)[C@H](CC(N)=O)NC(=O)[C@H](CCCCN)NC(=O)[C@H](Cc2ccccc2)NC(=O)[C@@H](NC(=O)[C@H](Cc2cnc[nH]2)NC(=O)[C@H](CCCCN)NC(=O)CNC(=O)[C@@H](NC(=O)[C@@H](NC(=O)[C@H](CCCCN)NC(=O)[C@H](CC(C)C)NC(=O)[C@@H](NC(=O)CNC(=O)[C@H](CCCCN)NC(=O)[C@H](CC(C)C)NC(=O)[C@@H](NC(=O)[C@H](CO)NC(=O)[C@H](CC(C)C)NC(=O)[C@H](CC(C)C)NC(=O)CN)C(C)C)C(C)C)[C@@H](C)O)[C@@H](C)O)[C@@H](C)CC)C(C)C)CSSC[C@@H](C(=O)O)NC(=O)[C@H](CCC(N)=O)NC(=O)CNC(=O)[C@H](CO)NC1=O [GLLSVLKGVLKTTGKHIFKNVGGSLLDQAKCKISGQC]
